This is an account of results in US9255100B2 (BAYER INTELLECTUAL PROPERTY GMBH, priority 2010, dated 2016).

Some results are limits rather than exact numbers.

The first experiment deals with T1, N-terminally GST-tagged human full length recombinant Mps-1 kinase (Homo sapiens, UniProt P33981).
T1 construct: N-terminally GST-tagged human full length recombinant Mps-1 kinase; purchased Invitrogen, Karslruhe, Germany PV4071
T1 sequence (P33981 1-857): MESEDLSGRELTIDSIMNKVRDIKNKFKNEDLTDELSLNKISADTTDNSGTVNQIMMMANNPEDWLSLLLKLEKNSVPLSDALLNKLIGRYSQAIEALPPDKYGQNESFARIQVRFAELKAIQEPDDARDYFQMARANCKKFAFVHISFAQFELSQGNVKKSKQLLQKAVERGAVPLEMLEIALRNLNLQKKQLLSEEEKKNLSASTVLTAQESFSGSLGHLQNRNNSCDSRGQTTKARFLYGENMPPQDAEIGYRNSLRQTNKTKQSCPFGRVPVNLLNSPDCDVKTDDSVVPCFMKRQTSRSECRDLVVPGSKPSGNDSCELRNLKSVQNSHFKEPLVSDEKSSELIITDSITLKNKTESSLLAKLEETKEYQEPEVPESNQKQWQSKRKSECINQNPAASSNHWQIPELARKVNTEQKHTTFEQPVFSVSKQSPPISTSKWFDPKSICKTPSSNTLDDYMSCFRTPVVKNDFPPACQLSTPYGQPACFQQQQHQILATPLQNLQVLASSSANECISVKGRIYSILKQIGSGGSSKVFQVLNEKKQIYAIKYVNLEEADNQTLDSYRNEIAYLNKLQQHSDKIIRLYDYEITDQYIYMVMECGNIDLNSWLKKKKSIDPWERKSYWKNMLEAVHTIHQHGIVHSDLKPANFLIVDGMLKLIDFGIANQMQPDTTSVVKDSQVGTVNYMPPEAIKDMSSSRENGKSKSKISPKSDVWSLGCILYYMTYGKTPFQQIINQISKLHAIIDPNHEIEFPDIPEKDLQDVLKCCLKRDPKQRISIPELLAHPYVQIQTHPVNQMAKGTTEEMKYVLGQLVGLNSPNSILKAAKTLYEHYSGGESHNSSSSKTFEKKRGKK
Briefly: Mps-1 kinase assay (TR-FRET). It counts as biochemical. As to conditions: 10 μM ATP, 1 μM peptide substrate, 60 min at 22° C., read-out: Mps1 IC50. The gist of the method:
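GST-Mps-1 (full length, N-term tag) ~1 nM final, linear-range adjusted per lot; biotinylated peptide substrate. Detection: Eu-anti-pSer/Thr donor → SA-XLent acceptor TR-FRET, 1 h, 22° C. Inhibition of kinase activity.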
Background: TR-FRET usually uses a lanthanide donor and a delayed reading to cut background.
With `Cc1cc(-c2cnc3c(NCC4CC[S+]([O-])CC4)cc(Oc4cccc(F)c4)nn23)ccc1C(=O)NC1CC1` (mixture of isomers) [Example 298B, N-cyclopropyl-4-[6-(3-fluorophenoxy)-8-({[(cis/trans)-1-oxidotetrahydro-2H-thiopyran-4-yl]methyl}amino)imidazo[1,2-b]pyridazin-3-yl]-2-methylbenzamide], the IC50 (as a rule, the midpoint of a concentration-inhibition curve) amounted to 0.1 nM.

The experiment is the same for the next values; noted with them: Mps1 IC50 [nM], 10 μM ATP, 1 μM peptide substrate, 60 min at 22° C.
For `CC(C)CNc1cc(-c2cccc(C(=O)NC(C)C)c2)nn2c(-c3ccc(C(=O)NC4CC4)cc3)cnc12` [Example 134, 3-{3-[4-(Cyclopropylcarbamoyl)phenyl]-8-[(2-methylpropyl)amino]imidazo[1,2-b]pyridazin-6-yl}-N-(propan-2-yl) benzamide], the IC50 is below 1 nM.
Still for that read-out and setting: with `CNC(=O)c1ccc(-c2cnc3c(NCCN4CCOCC4)cc(Oc4ccc(OC)cc4F)nn23)cc1C` [Example 565, 4-[6-(2-fluoro-4-methoxyphenoxy)-8-{[2-(morpholin-4-yl)ethyl]amino}imidazo[1,2-b]pyridazin-3-yl]-N,2-dimethylbenzamide] the figure was 3.5 nM.
`CNC(=O)N(C)CCCNc1cc(Oc2cccc(F)c2)nn2c(-c3ccc(C(=O)NC4CC4)c(C)c3)cnc12` [Example 503, N-cyclopropyl-4-[6-(3-fluoro-phenoxy)-8-({3-[methyl(methyl-carbamoyl)amino]propyl}amino)imidazo[1,2-b]pyridazin-3-yl]-2-methylbenzamide]: the IC50 amounted to 0.2 nM.
For `Cc1cc(-c2cnc3c(NCC(C)(C)N)cc(Oc4ccc(Cl)cc4)nn23)ccc1C(=O)NC1CC1` [Example 521, 4-{8-[(2-amino-2-methyl-propyl)amino]-6-(4-chloro-phenoxy)imidazo[1,2-b]pyridazin-3-yl}-N-cyclopropyl-2-methylbenzamide], the 50% inhibitory concentration (IC50) is 0.3 nM.
`Cc1cc(-c2cnc3c(NCC(C)(C)O)cc(C4=CCNCC4)nn23)ccc1C(=O)NC1CC1` [Example 42, N-cyclopropyl-4-{8-[(2-hydroxy-2-methylpropyl)amino]-6-(1,2,3,6-tetrahydropyridin-4-yl)imidazo[1,2-b]pyridazin-3-yl}-2-methylbenzamide]: the IC50 is 7.8 nM.
On the same count and under the same terms, with `Cc1cccc(-c2cc(NCC(C)C)c3ncc(-c4ccc(C(=O)NC5CC5)cc4)n3n2)c1C` [Example 106, N-cyclopropyl-4-{6-(2,3-dimethylphenyl)-8-[(2-methylpropyl)amino]imidazo[1,2-b]pyridazin-3-yl}benzamide] the figure was 8.9 nM.
On the same count and under the same terms, with `CC(=O)Nc1cccc(-c2cc(NCC(C)C)c3ncc(-c4ccc(C(=O)NC5CC5)cc4)n3n2)c1` [Example 126, 4-{6-[3-(Acetylamino)phenyl]-8-[(2-methylpropyl)amino]imidazo[1,2-b]pyridazin-3-yl}-N-cyclopropylbenzamide] the figure was 2 nM.
The same measure, in the same setting: with `Cc1cccc(-c2cc(NCC(C)C)c3ncc(-c4ccc(C(=O)NC5CC5)cc4)n3n2)c1` [Example 105, N-cyclopropyl-4-{6-(3-methylphenyl)-8-[(2-methylpropyl)amino]imidazo[1,2-b]pyridazin-3-yl}benzamide] the figure was 3.5 nM; with `Cc1cc(-c2cnc3c(NCC(C)(C)O)cc(Sc4ccc(C(F)(F)F)cc4)nn23)ccc1C(=O)NC1CC1` [Example 242, N-cyclopropyl-4-(8-[(2-hydroxy-2-methylpropyl)amino]-6-{[4-(trifluoromethyl)phenyl]sulfanyl}imidazo[1,2-b]pyridazin-3-yl)-2-methylbenzamide], 3.7 nM.
Consider `CNC(=O)c1ccc(-c2cnc3c(NCC4CCOCC4)cc(Oc4cc(F)ccc4C)nn23)cc1C` [Example 572, 4-{6-(5-fluoro-2-methylphenoxy)-8-[(tetrahydro-2H-pyran-4-ylmethyl)amino]imidazo[1,2-b]pyridazin-3-yl}-N,2-dimethylbenzamide], for which the IC50 was below 1 nM.
For `CNc1cc(Oc2cc(F)ccc2C)nn2c(-c3ccc(C(=O)NC4CC4)c(C)c3)cnc12` [Example 530, N-cyclopropyl-4-[6-(5-fluoro-2-methylphenoxy)-8-(methylamino)imidazo [1,2-b]pyridazin-3-yl]-2-methylbenzamide], the IC50 turned out to be 0.6 nM.
